Results taken from PubChem BioAssay (NCI).
Where “and” joins values, the source holds several entries; their conditions need not be identical. Identical values can stand only once.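 Values below derive from 48-hour exposures of cells grown in 96-well plates, with endpoints linearly interpolated between the two concentrations bracketing the appropriate inhibition level. GI50 is the concentration that inhibits growth by half. TGI: total growth inhibition.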

Legend:
Test in all cases: NCI tumour cell line growth inhibition, 48 h
[1] = system: COLO 205 colon
[2] = system: NCI/ADR-RES ovarian
[3] = system: K-562 leukemia
[4] = system: MDA-MB-435
[5] = system: A498 renal
[6] = system: RPMI-8226 leukemia
[7] = system: OVCAR-8 ovarian
[8] = system: DMS 114 small cell lung
[9] = system: SNB-78 CNS
[10] = system: UACC-257 melanoma
[11] = system: KM20L2 colon

Brc1ccccc2cc(-c3ccccc3)nc1-2
TGI [1]: 15.8 µM | TGI [2]: 44.6 µM | TGI [3]: > 61.2 µM | TGI [4]: > 61 µM | TGI [5]: 42.7 µM | TGI [6]: 29.7 µM | TGI [7]: > 50.2 µM | TGI [8]: 6.12 µM | TGI [9]: 6.91 µM | TGI [10]: 32 µM

O=C(NC1CC1)c1c(O)[nH]c(=S)[nH]c1=O
TGI [1]: > 100 µM | TGI [3]: > 100 µM | TGI [5]: > 100 µM | TGI [6]: > 100 µM | TGI [7]: > 100 µM | TGI [8]: > 100 µM | TGI [11]: > 100 µM | TGI [9]: > 100 µM | TGI [10]: > 100 µM

Cc1ccccc1NC(=O)/C(=N\NC(N)=S)C(C#N)c1ccccc1 (configuration not stated)
TGI [1]: > 100 µM | TGI [3]: > 100 µM | TGI [5]: > 100 µM | TGI [6]: > 100 µM | TGI [7]: > 100 µM | TGI [8]: > 100 µM | TGI [11]: > 100 µM | TGI [9]: > 100 µM | TGI [10]: > 100 µM

N#C/C(=C\c1cc(O)c(O)c(O)c1)C(N)=O
TGI [1]: > 100 µM | TGI [2]: > 100 µM | TGI [3]: > 100 µM | TGI [4]: > 100 µM | TGI [5]: > 100 µM | TGI [6]: > 100 µM | TGI [7]: > 100 µM | TGI [8]: > 100 µM | TGI [11]: > 100 µM | TGI [9]: > 100 µM | TGI [10]: > 100 µM

Cc1cccc(C)c1NC(=O)CCC(=O)NC(N)=NC#N
TGI [1]: > 100 µM | TGI [3]: > 100 µM | TGI [5]: > 100 µM | TGI [6]: > 100 µM | TGI [7]: > 100 µM | TGI [8]: > 100 µM | TGI [11]: > 100 µM | TGI [10]: > 100 µM

Cc1ccc2c(c1)-c1c3c(nn1C)-c1ccccc1SC3O2 (configuration not stated)
TGI [1]: > 100 µM | TGI [3]: > 100 µM | TGI [5]: > 100 µM | TGI [6]: > 100 µM | TGI [7]: > 100 µM | TGI [8]: > 100 µM | TGI [11]: > 100 µM | TGI [9]: > 100 µM | TGI [10]: > 100 µM

Cc1cccc(NC(=O)C(=O)C(C2OC(=O)c3ccccc32)[N+](=O)[O-])c1C (configuration not stated)
TGI [1]: 29.1 µM | TGI [3]: 39.7 µM | TGI [5]: 32 µM | TGI [7]: 26.8 µM | TGI [8]: 10.3 µM | TGI [11]: 42.7 µM | TGI [9]: > 100 µM | TGI [10]: 17.6 µM

Nc1cccc2c1-c1c(cccc1[N+](=O)[O-])C2=O
TGI [1]: > 100 µM | TGI [3]: > 100 µM | TGI [5]: > 100 µM | TGI [6]: > 100 µM | TGI [7]: > 100 µM | TGI [8]: > 100 µM | TGI [11]: > 100 µM | TGI [9]: > 100 µM | TGI [10]: > 100 µM

C[P+]1(Cc2ccccc2)CCCC1
TGI [1]: > 100 µM | TGI [3]: > 100 µM | TGI [5]: > 100 µM | TGI [6]: > 100 µM | TGI [7]: > 100 µM | TGI [8]: > 100 µM | TGI [11]: > 100 µM | TGI [9]: > 100 µM | TGI [10]: > 100 µM

O=C(O)c1ccc2c(c1)C(=O)N(c1ccc(S(=O)(=O)c3ccc(N4C(=O)c5ccc(C(=O)O)cc5C4=O)cc3)cc1)C2=O
TGI [1]: > 100 µM | TGI [3]: > 100 µM | TGI [5]: > 100 µM | TGI [6]: > 100 µM | TGI [7]: > 100 µM | TGI [8]: > 100 µM | TGI [11]: > 100 µM | TGI [9]: > 100 µM | TGI [10]: > 100 µM

N#Cc1c2ccccc2c(Cc2ccc3c(c2)OCCOCCOCCOCCOCCO3)c2ccccc12
TGI [3]: > 100 µM | TGI [5]: 27.6 µM | TGI [6]: > 100 µM | TGI [7]: 18.3 µM | TGI [8]: 23.9 µM | TGI [11]: 21.7 µM | TGI [9]: 31.9 µM | TGI [10]: 22.5 µM

C/C=C/C(=O)Oc1cccc2cccnc12
TGI [1]: 35.9 µM | TGI [3]: > 100 µM | TGI [6]: > 96.1 µM | TGI [7]: 54.3 µM | TGI [8]: 16.8 µM | TGI [11]: > 35.5 µM | TGI [9]: > 100 µM | TGI [10]: 40.9 µM

CC1(C)C(=O)OC(n2cc(F)c(=O)[nH]c2=O)C1=O (configuration not stated)
TGI [1]: > 100 µM | TGI [3]: > 100 µM | TGI [5]: > 100 µM | TGI [6]: > 100 µM | TGI [7]: > 100 µM | TGI [8]: > 100 µM | TGI [11]: > 100 µM | TGI [9]: > 100 µM | TGI [10]: > 100 µM

COc1ccc(CN2C(=O)[C@@H]3Cc4c(OC)c(C)c(OC)c(OC)c4[C@H](/C2=C\c2cc(OC)c(OC)c(C)c2OC)N3C(=O)OC(C)C)cc1
TGI [1]: > 100 µM | TGI [3]: > 100 µM | TGI [5]: > 100 µM | TGI [6]: > 100 µM | TGI [7]: > 100 µM | TGI [8]: > 100 µM | TGI [11]: > 100 µM | TGI [10]: > 100 µM

CNC(=O)ON(C(C)=O)C(=O)NC
GI50 [1]: > 70 µM and 47.5 µM | TGI [1]: 142 µM | TGI [2]: 266 µM | GI50 [3]: 51.8 µM and 26.6 µM | TGI [3]: 241 µM | TGI [4]: 50.2 µM | TGI [5]: 211 µM | GI50 [6]: 41.4 µM and 25.2 µM | TGI [6]: > 77.2 µM and 111 µM | TGI [7]: 235 µM | TGI [8]: 126 µM | TGI [11]: 324 µM | TGI [9]: 384 µM | TGI [10]: 159 µM

CCOC(=O)C1=C(C)NC(=O)NC1c1ccc(OC)cc1OC (configuration not stated)
TGI [1]: > 100 µM | TGI [3]: > 100 µM | TGI [5]: > 100 µM | TGI [6]: > 100 µM | TGI [7]: > 100 µM | TGI [8]: > 100 µM | TGI [11]: > 100 µM | TGI [9]: > 100 µM | TGI [10]: > 100 µM

COC(=O)C1=CC2C(=O)OC1C1C(=O)NC(=O)C21 (configuration not stated)
TGI [1]: > 100 µM | TGI [3]: > 100 µM | TGI [5]: > 100 µM | TGI [6]: > 100 µM | TGI [7]: > 100 µM | TGI [8]: > 100 µM | TGI [11]: > 100 µM | TGI [9]: > 100 µM | TGI [10]: > 100 µM

CC1(C)c2ccccc2N2C(c3ccccc3)=NOC21C (configuration not stated)
TGI [1]: > 100 µM | TGI [3]: > 100 µM | TGI [5]: > 100 µM | TGI [6]: > 100 µM | TGI [7]: > 100 µM | TGI [8]: > 100 µM | TGI [11]: > 100 µM | TGI [9]: > 100 µM | TGI [10]: > 100 µM

N#C/C(=C\c1c(O)cc(O)cc1O)C(N)=O
TGI [1]: > 100 µM | TGI [3]: > 100 µM | TGI [5]: > 100 µM | TGI [6]: > 100 µM | TGI [7]: > 100 µM | TGI [8]: > 100 µM | TGI [11]: > 100 µM | TGI [9]: > 100 µM | TGI [10]: > 100 µM

c1ccc(C2=NOC3C4CCC(C4)C23)cc1 (configuration not stated)
TGI [1]: > 100 µM | TGI [3]: > 100 µM | TGI [5]: > 100 µM | TGI [6]: > 100 µM | TGI [7]: > 100 µM | TGI [8]: > 100 µM | TGI [9]: > 100 µM | TGI [10]: > 100 µM

CN(c1ccccc1)c1cc2ccccc2nn1
TGI [1]: > 100 µM | TGI [3]: > 100 µM | TGI [5]: > 100 µM | TGI [6]: > 100 µM | TGI [7]: > 100 µM | TGI [8]: > 100 µM | TGI [11]: > 100 µM | TGI [9]: > 100 µM | TGI [10]: > 100 µM

C/C=C(\N=C=S)C(=O)OC1C(COC(C)=O)OC([C@]2(O)CC(=O)C(=N)C(C(=O)O)=C2O)C(O)C1OC1CC(OC)C(O)([C@@H](C)OC(=O)[C@@H](C)CC)C(C)O1 (some centres not stated)
TGI [1]: 13.3 µM | TGI [2]: > 100 µM | TGI [3]: 14.6 µM | TGI [4]: 35.7 µM | TGI [5]: 62.5 µM | TGI [6]: 7.19 µM | TGI [7]: 15 µM | TGI [8]: 14.9 µM | TGI [11]: 18.5 µM | TGI [9]: 26.4 µM | TGI [10]: 29.9 µM
